This note sets out measurements from ChEMBL document CHEMBL5380834, “Design, Synthesis, and Biological Evaluation of Androgen Receptor (AR) Antagonist-Heat Shock Protein 90 (Hsp90) Inhibitor Conjugates for Targeted Therapy of Castration-Resistant Prostate Cancer” (J Med Chem, 2023).

Molecules are shown by their SMILES. Calls of active or inactive are those of the source. No cut-off for these calls is given here.

For series [1], the system named is LNCaP. As to the kind of experiment: Induction of apoptosis in human LNCaP cells assessed as increase in PARP level at 1 uM measured after 48 hrs by Western blot analysis. The class given is functional, cell-based.
For series [2], the system named is CWR22R. Kind of series: Induction of apoptosis in human 22Rv1 cells assessed as late apoptotic cells at 100 nM measured for 48 hrs by flow cytometry assay (reference value: 3.96%). Type of series: functional.
In series [3] the test system is CWR22R. As to the kind of experiment: Induction of apoptosis in human 22Rv1 cells assessed as increase in caspase-3 level at 1 uM measured after 48 hrs by Western blot analysis. The class given is functional, cell-based.
Series [4] has as its system CWR22R. Kind of series: Cytotoxicity against human 22Rv1 cells assessed as inhibition of cell growth incubated for 5 days in presence of AR agonist, R1881 by WST-1 assay. Type of series: functional, cell-based. The following applies: 22Rv1, 120 h.
Series [5] deals with CWR22R. As to the kind of experiment: Induction of apoptosis in human 22Rv1 cells assessed as increase in PARP level at 1 uM measured after 48 hrs by Western blot analysis. The class given is functional, cell-based.
For series [6], the system named is LNCaP. Kind of series: Induction of apoptosis in human LNCaP cells assessed as early apoptotic cells at 100 nM measured for 48 hrs by flow cytometry assay (reference value: 1.48%). Type of series: functional.
Series [7] deals with T1, Androgen receptor (Homo sapiens) (UniProt P10275).
T1 sequence (whole entry): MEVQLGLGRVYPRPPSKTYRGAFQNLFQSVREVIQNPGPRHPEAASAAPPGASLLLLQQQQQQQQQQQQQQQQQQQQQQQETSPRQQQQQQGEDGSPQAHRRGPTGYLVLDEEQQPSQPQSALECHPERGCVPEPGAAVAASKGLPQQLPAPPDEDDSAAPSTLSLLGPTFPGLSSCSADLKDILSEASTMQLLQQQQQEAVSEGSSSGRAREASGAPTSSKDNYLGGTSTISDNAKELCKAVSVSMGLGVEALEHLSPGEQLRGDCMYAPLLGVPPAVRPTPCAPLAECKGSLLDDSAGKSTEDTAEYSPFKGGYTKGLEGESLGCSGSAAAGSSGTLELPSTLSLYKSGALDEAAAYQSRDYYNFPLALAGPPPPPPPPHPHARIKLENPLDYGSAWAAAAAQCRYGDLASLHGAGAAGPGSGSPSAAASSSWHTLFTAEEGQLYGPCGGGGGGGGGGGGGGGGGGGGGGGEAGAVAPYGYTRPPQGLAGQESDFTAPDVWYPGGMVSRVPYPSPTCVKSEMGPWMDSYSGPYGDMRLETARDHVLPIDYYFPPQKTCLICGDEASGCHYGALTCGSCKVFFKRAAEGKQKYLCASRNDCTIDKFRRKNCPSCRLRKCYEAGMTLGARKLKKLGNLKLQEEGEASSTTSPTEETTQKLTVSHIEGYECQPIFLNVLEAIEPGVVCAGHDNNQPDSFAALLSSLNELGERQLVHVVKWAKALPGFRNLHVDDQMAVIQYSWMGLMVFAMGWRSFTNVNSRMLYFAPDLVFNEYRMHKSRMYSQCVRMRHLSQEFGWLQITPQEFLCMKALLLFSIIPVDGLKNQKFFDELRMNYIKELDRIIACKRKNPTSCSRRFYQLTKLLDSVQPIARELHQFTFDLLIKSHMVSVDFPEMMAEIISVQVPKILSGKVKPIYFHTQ
As to the kind of experiment: Induction of full length AR degradation in human LNCaP cells assessed as maximum degradation at 100 nM measured after 12 hrs relative to control. The class given is cell-based.

Series [8] can be described thus: Toxicity in BALB/c nude mouse xenografted with human 22Rv1 cells assessed as animal weight loss at 5 mg/kg, ip administered once every 4th day for 3 weeks. The class given is organism-based, CWR22R. The following applies: in vivo, 504 h.
Series [9] deals with CWR22R. As to the kind of experiment: Induction of apoptosis in human 22Rv1 cells assessed as viable cells at 1000 nM measured for 48 hrs by flow cytometry assay (reference value: 91.3%). Type of series: functional. The following applies: read-out: Activity.
The subject of series [10] is CWR22R. As to the kind of experiment: Induction of apoptosis in human 22Rv1 cells assessed as necrotic cells at 1000 nM measured for 48 hrs by flow cytometry assay (reference value: 0.19%). Type of series: functional.
Series [11] is described as follows: Drug uptake in human 22Rv1 cells measured after 12 hrs by LC-MS/MS analysis. Type of series: ADME, cell-based. The following applies: cwr22r, 1 µM.
Series [12] can be described thus: Drug uptake in human 22Rv1 cells at 1 uM measured at 1 to 24 hrs by LC-MS/MS analysis. Type of series: ADME, cell-based. The following applies: cwr22r, time 1-24 hrs.
Series [13] relates to LNCaP. As to the kind of experiment: Downregulation of AR-regulated TMPRSS2 protein level in human LNCaP cells measured for 48 hrs in presence of AR agonist, R1881 in charcoal stripped serum by Western blot analysis. The class given is functional, cell-based. The following applies: dose 300-1000 nM.
For series [14], the system named is LNCaP. As to the kind of experiment: Cytotoxicity against AR-positive human LNCaP cells assessed as inhibition of cell growth incubated for 5 days in presence of AR agonist, R1881 in charcoal stripped serum by WST-1 assay. The class given is functional, cell-based. The following applies: 120 h.
Series [15] relates to LNCaP. Kind of series: Induction of apoptosis in human LNCaP cells assessed as late apoptotic cells at 100 nM measured for 48 hrs by flow cytometry assay (reference value: 1.29%). Type of series: functional.
The test system of series [16] is CWR22R. Kind of series: Induction of apoptosis in human 22Rv1 cells assessed as early apoptotic cells at 1000 nM measured for 48 hrs by flow cytometry assay (reference value: 4.59%). The class given is functional.
The subject of series [17] is CWR22R. As to the kind of experiment: Induction of apoptosis in human 22Rv1 cells assessed as late apoptotic cells at 1000 nM measured for 48 hrs by flow cytometry assay (reference value: 3.96%). Type of series: functional.
Series [18] has as its system LNCaP. As to the kind of experiment: Induction of apoptosis in human LNCaP cells assessed as increase in caspase-3 level at 1 uM measured after 48 hrs by Western blot analysis. The class given is functional, cell-based.
A short description of series [19]: Cytotoxicity against human RWPE-1 cells assessed as inhibition of cell growth incubated for 5 days by CCK-8 assay. Type of series: toxicity, cell-based.
Series [20] has as its system CWR22R. As to the kind of experiment: Induction of apoptosis in human 22Rv1 cells assessed as early apoptotic cells at 100 nM measured for 48 hrs by flow cytometry assay (reference value: 4.59%). The class given is functional.
Series [21] deals with CWR22R. As to the kind of experiment: Induction of apoptosis in human 22Rv1 cells assessed as necrotic cells at 100 nM measured for 48 hrs by flow cytometry assay (reference value: 0.19%). The class given is functional.
The test system of series [22] is LNCaP. As to the kind of experiment: Induction of apoptosis in human LNCaP cells assessed as necrotic cells at 1000 nM measured for 48 hrs by flow cytometry assay (reference value: 0.35%). Type of series: functional.
The subject of series [23] is LNCaP. Kind of series: Induction of apoptosis in human LNCaP cells assessed as late apoptotic cells at 1000 nM measured for 48 hrs by flow cytometry assay (reference value: 1.29%). The class given is functional.
Series [24] deals with CWR22R. Kind of series: Induction of cell cycle arrest in human 22Rv1 cells assessed as accumulation of cells at G2/M phase at 100 to 1000 nM measured for 24 hrs by flow cytometry analysis. The class given is functional, cell-based. The following applies: dose 100-1000 nM.
Series [25] relates to LNCaP. As to the kind of experiment: Induction of apoptosis in human LNCaP cells assessed as viable cells at 1000 nM measured for 48 hrs by flow cytometry assay (reference value: 96.9%). Type of series: functional. The following applies: read-out: Activity.
In series [26] the test system is LNCaP. As to the kind of experiment: Induction of apoptosis in human LNCaP cells assessed as early apoptotic cells at 1000 nM measured for 48 hrs by flow cytometry assay (reference value: 1.48%). The class given is functional.
Series [27] in a line: Toxicity in BALB/c nude mouse xenografted with human LNCaP cells assessed as animal weight loss at 5 mg/kg, ip administered once every 4th day for 3 weeks. The following applies: in vivo, 504 h. The class given is organism-based.
Series [28] concerns LNCaP. Kind of series: Downregulation of AR-regulated FKBP5 protein level in human LNCaP cells measured for 48 hrs in presence of AR agonist, R1881 in charcoal stripped serum by Western blot analysis. Type of series: functional, cell-based. The following applies: dose 300-1000 nM.
Series [29] has as its system LNCaP. Kind of series: Induction of apoptosis in human LNCaP cells assessed as viable cells at 100 nM measured for 48 hrs by flow cytometry assay (reference value: 96.9%). The class given is functional. The following applies: read-out: Activity.
Series [30] addresses T1, Androgen receptor (Homo sapiens). As to the kind of experiment: Induction of full length AR degradation in human RWPE-1 cells at 10 uM measured for 24 hrs by Western blot analysis. The class given is cell-based.
Series [31] deals with LNCaP. As to the kind of experiment: Induction of apoptosis in human LNCaP cells assessed as necrotic cells at 100 nM measured for 48 hrs by flow cytometry assay (reference value: 0.35%). The class given is functional.
Series [32] relates to Androgen receptor (Homo sapiens), P10275 [UNDEFINED MUTATION]. Kind of series: Induction of AR-V7 degradation in human 22Rv1 cells measured upto 24 hrs by Western blot analysis. The following applies: dose 1000.0 nM. The class given is cell-based.
The subject of series [33] is LNCaP. Kind of series: Induction of cell cycle arrest in human LNCaP cells assessed as accumulation of cells at G2/M phase at 100 to 1000 nM measured for 24 hrs by flow cytometry analysis. Type of series: functional, cell-based. The following applies: dose 100-1000 nM.
Series [34] concerns LNCaP. Kind of series: Downregulation of AR-regulated PSA protein level in human LNCaP cells measured for 48 hrs in presence of AR agonist, R1881 in charcoal stripped serum by Western blot analysis. Type of series: functional, cell-based. The following applies: dose 300-1000 nM.
In series [35] the test system is CWR22R. Kind of series: Induction of apoptosis in human 22Rv1 cells assessed as viable cells at 100 nM measured for 48 hrs by flow cytometry assay (reference value: 91.3%). Type of series: functional. The following applies: read-out: Activity.
Series [36] concerns CWR22R. As to the kind of experiment: Antitumor activity against human 22Rv1 cells xenografted in BALB/c nude mouse assessed as downregulation of AR-FL level at 2.5 mg/kg, ip administered once every 4th day for 3 weeks. The class given is functional, organism-based.
Series [37] concerns LNCaP. As to the kind of experiment: animal or person. The following applies: Mus musculus, po, 504 h, read-out: TGI.
Description: Antitumor activity against human LNCaP cells xenografted in BALB/c nude mouse assessed as inhibition of tumor growth at 5 mg/kg, po administered once every 4th day for 3 weeks
In series [38] the test system is CWR22R. Kind of series: Antitumor activity against human 22Rv1 cells xenografted in BALB/c nude mouse assessed as downregulation of AR-V7 level at 2.5 mg/kg, ip administered once every 4th day for 3 weeks. The class given is functional, organism-based.

As to `CC(C)c1cc(-c2n[nH]c(=O)n2-c2ccc(CN3CCN(CC4CCN(CC5CCN(c6ncc(C(=O)N[C@H]7CC[C@H](Oc8ccc(C#N)c(Cl)c8)CC7)cn6)CC5)CC4)CC3)cc2)c(O)cc1O`, the result in the series with LNCaP [1], in the series on CWR22R [3], in the series with CWR22R [5], in the series with LNCaP [18], with CWR22R [24] and in the series on LNCaP [33] was Active. The Activity is 12.8% in the series on CWR22R [2]; 4.05% in the series on LNCaP [6]; over 90% in series [7]; ~ 10% in [8]; 0.085% with CWR22R [10]; “Dose-Dependent Effect” with LNCaP [13]. Further, the Activity in the series on LNCaP [15] was found to be 3.71%; in the series on CWR22R [16], 13.5%; with CWR22R [17] it was 16.1%; in the series with CWR22R [20], 6.96%; with CWR22R [21], 0.066%; in the series on LNCaP [22] it was 1.13%. Also, the Activity was 6.91% in the series on LNCaP [23]; 4.87% in the series with LNCaP [26]; 10% in [27]; “Dose-Dependent Effect” with LNCaP [28]; 0.32% in the series on LNCaP [31]; “Dose-Dependent Effect” in series [32]. Also, the Activity result in the series with LNCaP [34] was “Dose-Dependent Effect”. Also, the half-maximal inhibitory concentration (IC50) in the series on CWR22R [4] amounted to 0.027 µM; in the series with LNCaP [14], 0.0334 µM. Moreover, the viability at 1 µM with CWR22R [9] was 70.3%; in the series with LNCaP [25] it was 87.1%. The Drug uptake entry in series [11] is reported as “Dose-Dependent Effect”; in [12], “Active”. Further, the IC50 at 5 days in series [19] came to 0.241 µM. The viability at 0.1 µM came to 91.9% with LNCaP [29] and 80.1% in the series on CWR22R [35]. Also, the outcome in [30] was inactive.

For `CNC(=O)c1ccc(N2C(=S)N(c3ccc(C#N)c(C(F)(F)F)c3)C(=O)C2(C)C)cc1F` [ENZALUTAMIDE], the IC50 in the series on CWR22R [4] was over 1 µM; with LNCaP [14], 0.052 µM. Also, the result in the series with CWR22R [36] and in the series with CWR22R [38] was inactive. The inhibition in vivo at 5 mg/kg in the series on LNCaP [37] was 50%. Also, the Activity in series [27] came out at 10%.
